Here are results for one compound from patent US7332482B2, “Method for treating benign prostatic hyperplasia” (BioXell S.p.A., priority 2003, dated 2008).

By Kd is commonly meant the equilibrium constant for the complex coming apart. Low values mean a tighter complex, high ones a looser complex.

Entries after “also recorded” stand apart in the source; their conditions may differ.

Series [1] is described as follows: Serum calcium measurement in rats. Format: in vivo, rat. The conditions noted are these: for calcemia: T-replaced castrated rats. As for the experimental part: Male Sprague Dawley rats (28 days old) were purchased from Charles River Laboratories (Calco, Lecco, Italy). All animal experimentation described was conducted in accord with accepted standards of animal care. Castration was performed via the scrotal route under ketamine/xylazine anaesthesia.
Serum calcium levels were measured with a commercially available colorimetric assay (Sigma), according to the manufacturers' instructions.

In another series the test system is prostate. Kind of series: 9-month toxicity study in male beagle dogs (prostate weight). In kind it is in vivo, dog. As for the experimental part:
A 9-month toxicity study was carried out in four groups of male beagle dogs, which were treated by daily oral gavage with 0.5 μg, 1.5 μg and 5 μg/kg body weight/day of Compound A (in vehicle Miglyol 812) or with vehicle alone. This treatment was followed by a 2-month recovery period for the group receiving the highest dose, 5 μg, after which prostate weights was measured.

For a further series, the system named is human bladder cells. The series is described as follows: Bladder cell growth, basal and testosterone-stimulated. Format: cell-based.
The test system of a further series is bladder strips. Kind of series: In vitro contractility of bladder strips from BOO rats. On the set-up: species or system rat. Conditions: strips from treated rats. As for the experimental part:
After completion of the cystometries, the rats were sacrificed by carbon monoxide asphyxiation followed by exsanguination. The abdomen was accessed through a lower midline incision whereafter the symphysis was opened. The bladder was carefully dissected free, and immediately placed in chilled Krebs solution, and strip preparations were dissected.
The bladder and urethra were separated at the level of the bladder neck, and semicircular strips were prepared from the middle third of the detrusor (1×2×5 mm). All preparations were used immediately after removal.
The strips were transferred to 5 ml tissue baths containing Krebs solution. The Krebs solution was maintained at 37° C. and bubbled continuously with a mixture of 95% O2 and 5% CO2, resulting in a pH of 7.4. The strips were suspended between two L-shaped hooks by means of silk ligatures. One hook was connected to a movable unit allowing adjustment of passive tension, and the other to a Grass FT03C (Grass Instruments Co, MA, USA) force transducer. Isometric tension was recorded using a Grass polygraph (7D). After mounting, the strips were stretched to a passive tension of 4 mN (the same tension for all preparations) and allowed to equilibrate for 45-60 min before further experiments were performed.
Electrical field stimulation (EFS) was accomplished by means of two platinum electrodes placed on either side of the preparations, and was performed using a Grass S48 or S88 stimulator, delivering single square wave pulses at selected frequencies. The train duration was 5 s, the pulse duration 0.8 ms, and the stimulation interval 2 min. The polarity of the electrodes was shifted after each pulse by means of a polarity changing unit.
Each experiment was started by exposing the preparations to a high K^+ (124 mM) Krebs solution until two reproducible contractions are obtained. […]

A further series concerns the target T1, AR (Homo sapiens, UniProt P10275).
T1 sequence (P10275 1-920): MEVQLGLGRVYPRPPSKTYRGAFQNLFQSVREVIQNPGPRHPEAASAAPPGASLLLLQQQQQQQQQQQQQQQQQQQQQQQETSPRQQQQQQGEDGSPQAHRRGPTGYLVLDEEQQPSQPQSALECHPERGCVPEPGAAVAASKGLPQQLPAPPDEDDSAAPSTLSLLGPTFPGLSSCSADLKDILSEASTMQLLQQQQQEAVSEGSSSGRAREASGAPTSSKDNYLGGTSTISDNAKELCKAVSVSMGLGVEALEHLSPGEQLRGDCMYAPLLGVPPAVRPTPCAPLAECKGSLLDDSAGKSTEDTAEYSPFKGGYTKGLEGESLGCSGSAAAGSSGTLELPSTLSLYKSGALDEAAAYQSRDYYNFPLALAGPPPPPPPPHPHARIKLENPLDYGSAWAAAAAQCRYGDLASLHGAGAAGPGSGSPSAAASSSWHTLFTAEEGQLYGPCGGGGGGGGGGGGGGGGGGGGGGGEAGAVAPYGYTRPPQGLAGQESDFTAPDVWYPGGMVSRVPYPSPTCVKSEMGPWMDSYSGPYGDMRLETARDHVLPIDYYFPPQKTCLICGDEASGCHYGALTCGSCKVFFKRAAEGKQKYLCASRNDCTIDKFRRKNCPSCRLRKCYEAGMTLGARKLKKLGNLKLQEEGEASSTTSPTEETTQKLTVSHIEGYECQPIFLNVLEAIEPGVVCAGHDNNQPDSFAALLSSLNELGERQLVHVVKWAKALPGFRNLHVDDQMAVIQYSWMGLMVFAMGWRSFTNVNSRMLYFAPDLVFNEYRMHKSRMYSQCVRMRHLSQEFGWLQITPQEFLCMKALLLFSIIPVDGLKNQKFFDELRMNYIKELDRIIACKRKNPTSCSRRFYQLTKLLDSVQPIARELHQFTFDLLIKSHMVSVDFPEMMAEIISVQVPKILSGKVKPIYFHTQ
Kind of series: [3H]R1881 binding assay on cytosol fractions of BPH fragments. On the set-up: from tissue; host or cells: human BPH prostatic tissue, cytosol fraction. The protocol:
Prostatic tissues for binding assay were obtained from patients who underwent suprapubic adenomectomy for BPH. No pharmacological treatment was performed in the 3 months preceding surgery. After surgery, the tissues were immediately placed in liquid nitrogen and stored at −80° C. until processing.
Protein content was determined by the known method of Bradford, using BSA as a standard.

For `C=C1/C(=C\C=C2/CCC[C@]3(C)C([C@@H](C)C/C=C/C(O)(CC)CC)=CC[C@@H]23)C[C@@H](O)C[C@@H]1F` [Compound A, 1-alpha-fluoro-25-hydroxy-16,23E-diene-26,27-bishomo-20-epi-cholecalciferol], the calcemia in series [1] (10 μg/Kg) was 10.16 ± 0.24 mg/dL; in series [1] (30 μg/Kg) it was 9.87 ± 0.15 mg/dL; in series [1] (100 μg/Kg), 10.55 ± 0.18 mg/dL; in series [1] (300 μg/Kg) it was 10.85 ± 0.1 mg/dL. Also, the other side effects entry in series [1] (all rat protocols, oral) is “No other discernible side effects”. Moreover, the hypercalcemia entry in series [1] (all rat protocols, oral 10-300 μg/Kg) was “very modest hypercalcemia only at the highest dose tested”. Moreover, the “prostate weight after recovery” value in the series with prostate (5 μg/kg/day 9 months then 2-month recovery, vs vehicle) was “reduction of prostate weight”. Moreover, the toxicity data result in the series on prostate (9 months daily oral gavage) was “entirely favourable toxicity data”. The “prostate weight at end of treatment” value in the series on prostate (9 months daily oral gavage, 0.5, 1.5, 5 μg/kg/day, vs vehicle) is “lower prostate weight; also recorded: clear reduction of prostate weight”. The “inhibition of basal and testosterone-stimulated growth of bladder cells” value with human bladder cells is on record as “effective in inhibiting”. Besides, the “effect on bladder cell growth compared with finasteride” value in the series on human bladder cells (T 10 nM, F 1 nM) is recorded as “significantly greater than that of the anti-androgen finasteride”. Also, in the series on bladder strips, the “response of bladder strips to EFS” value is “beneficial effect”. In addition, the “response of bladder strips to carbachol” value in the series on bladder strips was “beneficial effect”. Moreover, the “K response of bladder strips” value with bladder strips (high K+ 124 mM) was “beneficial effect”. This compound also had a Kd at AR of more than 100 µM. Further, the “competition for [3H]-R1881 binding” value on AR (human BPH homogenates, 10^−10-10^−4 M) is recorded as “did not compete”.
